Measured values as given in patent US6660692B1, “Herbicidal compositions comprising picolinafen” (Aventis CropScience S.A., priority 1999, dated 2003).

Experiments:
Assay type in all cases: in vivo
Details in all cases: 12 days after treatment
Galium aparine (GALAP) [1] = experiment: Example 5 glasshouse trial post-emergence in wheat, (I) and isoxaflutole
Experimental: (§1) A glasshouse trial was carried out post-emergence in wheat using a tank mixture comprising a phenoxypicolinamide derivative of formula I (at 1, 4 and 16 g/ha) and isoxaflutole (at 8, 16 and 32 g/ha) which was sprayed on the following weed species:
(§2) Alopecurus myosuroides (ALOMY) and Galium aparine (GALAP).

[2] = test system: Alopecurus myosuroides (ALOMY); experiment: as above
Experimental: as §1, §2

[3] = test system: Echinochloa crus-galli (ECHCG); experiment: Example 3 glasshouse trial post-emergence in wheat, (I) and isoproturon
Experimental: (§3) A glasshouse trial was carried out post-emergence in wheat using a tank mixture comprising a phenoxypicolinamide derivative of formula I (at 1, 4 and 16 g/ha) and isoproturon (at 125, 250 and 500 g/ha) which was sprayed on the following weed species:
(§4) Alopecurus myosuroides (ALOMY), Setaria viridis (SETVI), Avena fatua (AVEFA), Echinochloa crus-galli (ECHCG) and Galium aparine (GALAP).

Avena fatua (AVEFA) [4] = experiment: as above
Experimental: as §3, §4

Galium aparine (GALAP) [5] = experiment: as above
Experimental: as §3, §4

[6] = test system: Alopecurus myosuroides (ALOMY); experiment: as above
Experimental: as §3, §4

Setaria viridis (SETVI) [7] = experiment: as above
Experimental: as §3, §4

[8] = test system: Echinochloa crus-galli (ECHCG); experiment: Example 4 glasshouse trial post-emergence in wheat, (I) and bromoxynil
Experimental: (§5) A glasshouse trial was carried out post-emergence in wheat using a tank mixture comprising a phenoxypicolinamide derivative of formula I (at 1, 4 and 16 g/ha) and bromoxynil (at 12.5, 50 and 200 g/ha) which was sprayed on the following weed species:
(§6) Setaria viridis (SETVI), Avena fatua (AVEFA), Echinochloa crus-galli (ECHCG) and Galium aparine (GALAP).

Avena fatua (AVEFA) [9] = experiment: as above
Experimental: as §5, §6

Galium aparine (GALAP) [10] = experiment: as above
Experimental: as §5, §6

Setaria viridis (SETVI) [11] = experiment: as above
Experimental: as §5, §6

O=C(Nc1ccc(F)cc1)c1cccc(Oc2cccc(C(F)(F)F)c2)n1 [(I), picolinafen]
% Weed Control GALAP (Galium aparine (GALAP) [1]; 1 g ai/ha): 10%
% Weed Control GALAP (Galium aparine (GALAP) [1]; 4 g ai/ha): 40%
% Weed Control GALAP (Galium aparine (GALAP) [1]; 16 g ai/ha): 90%
% Weed Control ALOMY ([2]; 1 g ai/ha): 10%
% Weed Control ALOMY ([2]; 4 g ai/ha): 10%
% Weed Control ALOMY ([2]; 16 g ai/ha): 30%
% Weed Control ECHCG ([3]; 1 g ai/ha): 10%
% Weed Control ECHCG ([3]; 4 g ai/ha): 10%
% Weed Control ECHCG ([3]; 16 g ai/ha): 40%
% Weed Control AVEFA (Avena fatua (AVEFA) [4]; 1 g ai/ha): 10%
% Weed Control AVEFA (Avena fatua (AVEFA) [4]; 4 g ai/ha): 20%
% Weed Control AVEFA (Avena fatua (AVEFA) [4]; 16 g ai/ha): 40%
% Weed Control GALAP (Galium aparine (GALAP) [5]; 1 g ai/ha): 10%
% Weed Control GALAP (Galium aparine (GALAP) [5]; 4 g ai/ha): 40%
% Weed Control GALAP (Galium aparine (GALAP) [5]; 16 g ai/ha): 90%
% Weed Control ALOMY ([6]; 1 g ai/ha): 10%
% Weed Control ALOMY ([6]; 4 g ai/ha): 10%
% Weed Control ALOMY ([6]; 16 g ai/ha): 30%
% Weed Control SETVI (Setaria viridis (SETVI) [7]; 1 g ai/ha): 10%
% Weed Control SETVI (Setaria viridis (SETVI) [7]; 4 g ai/ha): 30%
% Weed Control SETVI (Setaria viridis (SETVI) [7]; 16 g ai/ha): 70%
% Weed Control ECHCG ([8]; 1 g ai/ha): 10%
% Weed Control ECHCG ([8]; 4 g ai/ha): 10%
% Weed Control ECHCG ([8]; 16 g ai/ha): 40%
% Weed Control AVEFA (Avena fatua (AVEFA) [9]; 1 g ai/ha): 10%
% Weed Control AVEFA (Avena fatua (AVEFA) [9]; 4 g ai/ha): 20%
% Weed Control AVEFA (Avena fatua (AVEFA) [9]; 16 g ai/ha): 40%
% Weed Control GALAP (Galium aparine (GALAP) [10]; 1 g ai/ha): 10%
% Weed Control GALAP (Galium aparine (GALAP) [10]; 4 g ai/ha): 40%
% Weed Control GALAP (Galium aparine (GALAP) [10]; 16 g ai/ha): 90%
% Weed Control SETVI (Setaria viridis (SETVI) [11]; 1 g ai/ha): 10%
% Weed Control SETVI (Setaria viridis (SETVI) [11]; 4 g ai/ha): 30%
% Weed Control SETVI (Setaria viridis (SETVI) [11]; 16 g ai/ha): 70%

CC(C)c1ccc(NC(=O)N(C)C)cc1 [Compound (II), 3-(4-isopropylphenyl)-1,1-dimethylurea]
% Weed Control ECHCG ([3]; 125 g ai/ha): 10%
% Weed Control ECHCG ([3]; 250 g ai/ha): 70%
% Weed Control ECHCG ([3]; 500 g ai/ha): 70%
% Weed Control AVEFA (Avena fatua (AVEFA) [4]; 125 g ai/ha): 0%
% Weed Control AVEFA (Avena fatua (AVEFA) [4]; 250 g ai/ha): 30%
% Weed Control AVEFA (Avena fatua (AVEFA) [4]; 500 g ai/ha): 30%
% Weed Control GALAP (Galium aparine (GALAP) [5]; 125 g ai/ha): 0%
% Weed Control GALAP (Galium aparine (GALAP) [5]; 250 g ai/ha): 0%
% Weed Control GALAP (Galium aparine (GALAP) [5]; 500 g ai/ha): 0%
% Weed Control ALOMY ([6]; 125 g ai/ha): 0%
% Weed Control ALOMY ([6]; 250 g ai/ha): 0%
% Weed Control ALOMY ([6]; 500 g ai/ha): 20%
% Weed Control SETVI (Setaria viridis (SETVI) [7]; 125 g ai/ha): 50%
% Weed Control SETVI (Setaria viridis (SETVI) [7]; 250 g ai/ha): 70%
% Weed Control SETVI (Setaria viridis (SETVI) [7]; 500 g ai/ha): 100%

N#Cc1cc(Br)c(O)c(Br)c1 [Compound (III), 3,5-dibromo-4-hydroxybenzonitrile]
% Weed Control ECHCG ([8]; 12.5 g ai/ha): 0%
% Weed Control ECHCG ([8]; 50 g ai/ha): 0%
% Weed Control ECHCG ([8]; 200 g ai/ha): 20%
% Weed Control AVEFA (Avena fatua (AVEFA) [9]; 12.5 g ai/ha): 0%
% Weed Control AVEFA (Avena fatua (AVEFA) [9]; 50 g ai/ha): 0%
% Weed Control AVEFA (Avena fatua (AVEFA) [9]; 200 g ai/ha): 10%
% Weed Control GALAP (Galium aparine (GALAP) [10]; 12.5 g ai/ha): 0%
% Weed Control GALAP (Galium aparine (GALAP) [10]; 50 g ai/ha): 80%
% Weed Control GALAP (Galium aparine (GALAP) [10]; 200 g ai/ha): 100%
% Weed Control SETVI (Setaria viridis (SETVI) [11]; 12.5 g ai/ha): 0%
% Weed Control SETVI (Setaria viridis (SETVI) [11]; 50 g ai/ha): 20%
% Weed Control SETVI (Setaria viridis (SETVI) [11]; 200 g ai/ha): 20%

CS(=O)(=O)c1cc(C(F)(F)F)ccc1C(=O)c1cnoc1C1CC1 [Compound (IV), 5-cyclopropyl-4-(2-methylsulphonyl-4-trifluoromethyl)-benzoylisoxazole]
% Weed Control GALAP (Galium aparine (GALAP) [1]; 8 g ai/ha): 60%
% Weed Control GALAP (Galium aparine (GALAP) [1]; 16 g ai/ha): 60%
% Weed Control GALAP (Galium aparine (GALAP) [1]; 32 g ai/ha): 80%
% Weed Control ALOMY ([2]; 8 g ai/ha): 10%
% Weed Control ALOMY ([2]; 16 g ai/ha): 20%
% Weed Control ALOMY ([2]; 32 g ai/ha): 40%
